Test results as given in PubChem BioAssay (NCI).
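GI50 marks 50% less growth. TGI: concentration producing complete growth inhibition.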

Tests used:
Experiment in all cases: growth of human tumour cells (NCI), 384-well format
786-0 renal = tested on: 786-0 renal
A498 renal = tested on: A498 renal
A549 NSCLC = tested on: A549 NSCLC
ACHN renal = tested on: ACHN renal
BT-549 breast = tested on: BT-549 breast
CAKI-1 renal = tested on: CAKI-1 renal
CCRF-CEM leukemia = tested on: CCRF-CEM leukemia
COLO 205 colon = tested on: COLO 205 colon
DU-145 prostate = tested on: DU-145 prostate
EKVX NSCLC = tested on: EKVX NSCLC
HCC-2998 colon = tested on: HCC-2998 colon
HCT-116 colon = tested on: HCT-116 colon
HCT-15 colon = tested on: HCT-15 colon
HL-60(TB) leukemia = tested on: HL-60(TB) leukemia
HOP-62 NSCLC = tested on: HOP-62 NSCLC
HOP-92 NSCLC = tested on: HOP-92 NSCLC
HS 578T breast = tested on: HS 578T breast
HT29 colon = tested on: HT29 colon
IGROV1 ovarian = tested on: IGROV1 ovarian
KM12 colon = tested on: KM12 colon
LOX IMVI melanoma = tested on: LOX IMVI melanoma
M14 melanoma = tested on: M14 melanoma
MALME-3M melanoma = tested on: MALME-3M melanoma
MCF7 breast = tested on: MCF7 breast
MDA-MB-231 breast = tested on: MDA-MB-231 breast
MDA-MB-435 melanoma = tested on: MDA-MB-435 melanoma
MDA-MB-468 breast = tested on: MDA-MB-468 breast
MOLT-4 leukemia = tested on: MOLT-4 leukemia
NCI-H226 lung = tested on: NCI-H226 lung
NCI-H23 lung = tested on: NCI-H23 lung
NCI-H322M lung = tested on: NCI-H322M lung
NCI-H460 NSCLC = tested on: NCI-H460 NSCLC
NCI-H522 lung = tested on: NCI-H522 lung
NCI/ADR-RES ovarian = tested on: NCI/ADR-RES ovarian
OVCAR-3 ovarian = tested on: OVCAR-3 ovarian
OVCAR-4 ovarian = tested on: OVCAR-4 ovarian
OVCAR-5 ovarian = tested on: OVCAR-5 ovarian
OVCAR-8 ovarian = tested on: OVCAR-8 ovarian
PC-3 prostate = tested on: PC-3 prostate
RPMI-8226 leukemia = tested on: RPMI-8226 leukemia
RXF 393 renal = tested on: RXF 393 renal
SF-268 CNS = tested on: SF-268 CNS
SF-295 CNS = tested on: SF-295 CNS
SF-539 CNS = tested on: SF-539 CNS
SK-MEL-28 melanoma = tested on: SK-MEL-28 melanoma
SK-MEL-5 melanoma = tested on: SK-MEL-5 melanoma
SK-OV-3 ovarian = tested on: SK-OV-3 ovarian
SN12C renal = tested on: SN12C renal
SNB-19 CNS = tested on: SNB-19 CNS
SNB-75 CNS = tested on: SNB-75 CNS
SR leukemia = tested on: SR leukemia
SW-620 colon = tested on: SW-620 colon
T-47D breast = tested on: T-47D breast
TK-10 renal = tested on: TK-10 renal
U251 glioblastoma = tested on: U251 glioblastoma
UACC-257 melanoma = tested on: UACC-257 melanoma
UACC-62 melanoma = tested on: UACC-62 melanoma
UO-31 renal = tested on: UO-31 renal

Cc1cc(Nc2ncnc3ccc(NC4=NC(C)(C)CO4)cc23)ccc1Oc1ccn2ncnc2c1
GI50 (786-0 renal): 4.25 µM
TGI (786-0 renal): 8.71 µM
GI50 (A498 renal): 4.69 µM
TGI (A498 renal): 9.11 µM
GI50 (A549 NSCLC): 14.6 µM
TGI (A549 NSCLC): > 47.3 µM
GI50 (ACHN renal): 12.6 µM
TGI (ACHN renal): > 46.9 µM
GI50 (BT-549 breast): 5.36 µM
TGI (BT-549 breast): 10.7 µM
GI50 (CAKI-1 renal): 4.23 µM
TGI (CAKI-1 renal): 12.6 µM
GI50 (CCRF-CEM leukemia): 22.9 µM
TGI (CCRF-CEM leukemia): > 100 µM
GI50 (COLO 205 colon): > 40.9 µM
TGI (COLO 205 colon): > 55.1 µM
GI50 (DU-145 prostate): 13.6 µM
TGI (DU-145 prostate): 27.8 µM
GI50 (EKVX NSCLC): 23 µM
TGI (EKVX NSCLC): > 46 µM
GI50 (HCC-2998 colon): 24.3 µM
TGI (HCC-2998 colon): 98.8 µM
GI50 (HCT-116 colon): 6.82 µM
TGI (HCT-116 colon): 20.3 µM
GI50 (HCT-15 colon): 9.08 µM
TGI (HCT-15 colon): 25.4 µM
GI50 (HL-60(TB) leukemia): 5.59 µM
TGI (HL-60(TB) leukemia): 10.3 µM
GI50 (HOP-62 NSCLC): 13.5 µM
TGI (HOP-62 NSCLC): 28.7 µM
GI50 (HOP-92 NSCLC): 4.48 µM
TGI (HOP-92 NSCLC): 10.3 µM
GI50 (HS 578T breast): 3.74 µM
TGI (HS 578T breast): 8.79 µM
GI50 (HT29 colon): 29.9 µM
TGI (HT29 colon): > 100 µM
GI50 (IGROV1 ovarian): 5 µM
TGI (IGROV1 ovarian): > 40.4 µM
GI50 (KM12 colon): 2.64 µM
TGI (KM12 colon): > 55 µM
GI50 (LOX IMVI melanoma): 14.6 µM
TGI (LOX IMVI melanoma): 28.7 µM
GI50 (M14 melanoma): 11.4 µM
TGI (M14 melanoma): > 57.2 µM
GI50 (MALME-3M melanoma): 2.29 µM
TGI (MALME-3M melanoma): 7.05 µM
GI50 (MCF7 breast): 18.3 µM
TGI (MCF7 breast): > 48.2 µM
GI50 (MDA-MB-231 breast): 13.6 µM
TGI (MDA-MB-231 breast): 27.7 µM
GI50 (MDA-MB-435 melanoma): 18.6 µM
TGI (MDA-MB-435 melanoma): > 59.6 µM
GI50 (MDA-MB-468 breast): 6.86 µM
TGI (MDA-MB-468 breast): 19.1 µM
GI50 (MOLT-4 leukemia): 1.93 µM
TGI (MOLT-4 leukemia): 7.7 µM
GI50 (NCI-H226 lung): 12.5 µM
TGI (NCI-H226 lung): > 43 µM
GI50 (NCI-H23 lung): 25.1 µM
TGI (NCI-H23 lung): > 53.1 µM
GI50 (NCI-H322M lung): 5.09 µM
TGI (NCI-H322M lung): > 43.6 µM
GI50 (NCI-H460 NSCLC): 4.32 µM
TGI (NCI-H460 NSCLC): 9.09 µM
GI50 (NCI-H522 lung): 1.29 µM
TGI (NCI-H522 lung): 23.7 µM
GI50 (NCI/ADR-RES ovarian): 14.3 µM
TGI (NCI/ADR-RES ovarian): 27.5 µM
GI50 (OVCAR-3 ovarian): 4.71 µM
TGI (OVCAR-3 ovarian): 10 µM
GI50 (OVCAR-4 ovarian): 10.3 µM
TGI (OVCAR-4 ovarian): 22.6 µM
GI50 (OVCAR-5 ovarian): > 38.8 µM
TGI (OVCAR-5 ovarian): > 58.1 µM
GI50 (OVCAR-8 ovarian): 14.3 µM
TGI (OVCAR-8 ovarian): > 44.3 µM
GI50 (PC-3 prostate): 8.56 µM
TGI (PC-3 prostate): > 53.8 µM
GI50 (RPMI-8226 leukemia): 2.54 µM
TGI (RPMI-8226 leukemia): 14.9 µM
GI50 (RXF 393 renal): 7.33 µM
TGI (RXF 393 renal): > 27.7 µM
GI50 (SF-268 CNS): 6.32 µM
TGI (SF-268 CNS): > 50.2 µM
GI50 (SF-295 CNS): 16.3 µM
TGI (SF-295 CNS): 32.9 µM
GI50 (SF-539 CNS): 5.18 µM
TGI (SF-539 CNS): 9.56 µM
GI50 (SK-MEL-28 melanoma): 8.21 µM
TGI (SK-MEL-28 melanoma): 49.7 µM
GI50 (SK-MEL-5 melanoma): 12.3 µM
TGI (SK-MEL-5 melanoma): 26.6 µM
GI50 (SK-OV-3 ovarian): 13 µM
TGI (SK-OV-3 ovarian): > 46 µM
GI50 (SN12C renal): 5.84 µM
TGI (SN12C renal): 20 µM
GI50 (SNB-19 CNS): 9.26 µM
TGI (SNB-19 CNS): > 61.7 µM
GI50 (SNB-75 CNS): 6.7 µM
TGI (SNB-75 CNS): 13.8 µM
GI50 (SR leukemia): 0.407 µM
TGI (SR leukemia): 0.814 µM
GI50 (SW-620 colon): 6.12 µM
TGI (SW-620 colon): > 57.8 µM
GI50 (T-47D breast): 2.9 µM
TGI (T-47D breast): 21.3 µM
GI50 (TK-10 renal): 15.2 µM
TGI (TK-10 renal): 36 µM
GI50 (U251 glioblastoma): 15.9 µM
TGI (U251 glioblastoma): 36.1 µM
GI50 (UACC-257 melanoma): 20.2 µM
TGI (UACC-257 melanoma): 44.6 µM
GI50 (UACC-62 melanoma): 5.05 µM
TGI (UACC-62 melanoma): 10.3 µM
GI50 (UO-31 renal): 3.27 µM
TGI (UO-31 renal): 8.28 µM
